Results: patent publication US20200032271A1, “COMBINATION THERAPY WITH LIPOSOMAL ANTISENSE OLIGONUCLEOTIDES” (Bio-Path Holdings, Inc., priority 2016, published 2020)
Marks after values point to notes of the source that are not given here. [PEt] = P-ethoxy (ethyl phosphotriester) internucleoside linkage

Assay: Adverse events in study 2003-0578 (NCI CTCAE grading)
[1] = MDS at enrollment (n = 4), all treatment groups

BP1001: liposome-incorporated P-ethoxy antisense oligodeoxynucleotide (5′-ATATTTGGCGATGGCTTC-3′, SEQ ID NO: 1) specific to grb2 mRNA, in neutral DOPC liposomes (DNA, all [PEt], methylation of C not given here; incorporated in neutral DOPC liposomes)
disorders (4/4): Renal and urinary disorders ≥Grade 3, total events (all patients (N = 39)) | Renal and urinary disorders ≥Grade 3, total patients (all patients (N = 39))
2: Investigations ≥Grade 3, total patients (all patients (N = 39)) | Acidosis ≥Grade 3, number of patients (monotherapy 5 mg/m^2 (n = 13)) | Febrile neutropenia ≥Grade 3, number of patients (monotherapy 5 mg/m^2 (n = 13)) | Hypoglycemia ≥Grade 3, number of patients (monotherapy 5 mg/m^2 (n = 13)) | Hypotension ≥Grade 3, number of patients (monotherapy 5 mg/m^2 (n = 13)) | Multi-organ failure ≥Grade 3, number of patients (monotherapy 5 mg/m^2 (n = 13)) | Respiratory failure ≥Grade 3, number of patients (monotherapy 5 mg/m^2 (n = 13)) | Respiratory, thoracic, and mediastinal disorders ≥Grade 3, number of patients (monotherapy 5 mg/m^2 (n = 13)) | Vascular disorders ≥Grade 3, number of patients (monotherapy 5 mg/m^2 (n = 13)) | Blood and lymphatic system disorders ≥Grade 3, number of patients (monotherapy 10 mg/m^2 (n = 6))
disorders (7/7): Respiratory, thoracic, and mediastinal disorders ≥Grade 3, total events (all patients (N = 39)) | Respiratory, thoracic, and mediastinal disorders ≥Grade 3, total patients (all patients (N = 39))
1: Patients with AEs ≥Grade 3, number of patients [1] | Asthenia ≥Grade 3, number of patients (monotherapy 5 mg/m^2 (n = 13)) | Hepatic failure ≥Grade 3, number of patients (monotherapy 5 mg/m^2 (n = 13)) | Hepatobiliary disorders ≥Grade 3, number of patients (monotherapy 5 mg/m^2 (n = 13)) | Hypocalcemia ≥Grade 3, number of patients (monotherapy 5 mg/m^2 (n = 13)) | Hypokalemia ≥Grade 3, number of patients (monotherapy 5 mg/m^2 (n = 13)) | Hyponatremia ≥Grade 3, number of patients (monotherapy 5 mg/m^2 (n = 13)) | Hypoxia ≥Grade 3, number of patients (monotherapy 5 mg/m^2 (n = 13)) | Investigations ≥Grade 3, number of patients (monotherapy 5 mg/m^2 (n = 13)) | Platelet count decreased ≥Grade 3, number of patients (monotherapy 5 mg/m^2 (n = 13)) | Respiratory distress ≥Grade 3, number of patients (monotherapy 5 mg/m^2 (n = 13)) | Acidosis ≥Grade 3, number of patients (monotherapy 10 mg/m^2 (n = 6)) | General disorders and administration site conditions ≥Grade 3, number of patients (monotherapy 10 mg/m^2 (n = 6)) | Hepatic failure ≥Grade 3, number of patients (monotherapy 10 mg/m^2 (n = 6)) | Hepatobiliary disorders ≥Grade 3, number of patients (monotherapy 10 mg/m^2 (n = 6)) | Hypokalemia ≥Grade 3, number of patients (monotherapy 10 mg/m^2 (n = 6))
1^a: Febrile neutropenia ≥Grade 3, number of patients (monotherapy 10 mg/m^2 (n = 6))
19: Metabolism and nutritional disorders ≥Grade 3, total events (all patients (N = 39))
disorders (3/3): Cardiac disorders ≥Grade 3, total events (all patients (N = 39)) | Cardiac disorders ≥Grade 3, total patients (all patients (N = 39))
4: AML progression, number of patients (monotherapy 10 mg/m^2 (n = 6))
11: Blood and lymphatic system disorders ≥Grade 3, total patients (all patients (N = 39))
(5/5): General disorders and administration site conditions ≥Grade 3, total events (all patients (N = 39)) | General disorders and administration site conditions ≥Grade 3, total patients (all patients (N = 39))
91: Patients with AEs ≥Grade 3, total events (all patients (N = 39))
5: Blood and lymphatic system disorders ≥Grade 3, number of patients (monotherapy 5 mg/m^2 (n = 13))
0: Hyponatremia ≥Grade 3, number of patients [1] | Hypotension ≥Grade 3, number of patients [1] | Hypovolemia ≥Grade 3, number of patients [1] | Hypoxia ≥Grade 3, number of patients [1] | Investigations ≥Grade 3, number of patients [1] | Leukocytosis ≥Grade 3, number of patients [1] | Metabolism and nutritional disorders ≥Grade 3, number of patients [1] | Multi-organ failure ≥Grade 3, number of patients [1] | Musculoskeletal and connective tissue disorders ≥Grade 3, number of patients [1] | Neoplasms benign, malignant, and unspecified (incl. cysts and polyps) ≥Grade 3, number of patients [1] | Penile Pain ≥Grade 3, number of patients [1] | Platelet count decreased ≥Grade 3, number of patients [1] | Pleural Effusions ≥Grade 3, number of patients [1] | Pneumonia ≥Grade 3, number of patients [1] | Psychiatric disorders ≥Grade 3, number of patients [1] | Renal and urinary disorders ≥Grade 3, number of patients [1] | Reproductive system and breast disorders ≥Grade 3, number of patients [1] | Respiratory distress ≥Grade 3, number of patients [1] | Respiratory failure ≥Grade 3, number of patients [1] | Respiratory, thoracic, and mediastinal disorders ≥Grade 3, number of patients [1] | Tumor lysis syndrome ≥Grade 3, number of patients [1] | Vascular disorders ≥Grade 3, number of patients [1] | Abdominal Pain ≥Grade 3, number of patients (monotherapy 5 mg/m^2 (n = 13)) | Back Pain ≥Grade 3, number of patients (monotherapy 5 mg/m^2 (n = 13)) | Cataract ≥Grade 3, number of patients (monotherapy 5 mg/m^2 (n = 13)) | Dyspnea ≥Grade 3, number of patients (monotherapy 5 mg/m^2 (n = 13)) | Extremity Lower Edema ≥Grade 3, number of patients (monotherapy 5 mg/m^2 (n = 13)) | Eye disorders ≥Grade 3, number of patients (monotherapy 5 mg/m^2 (n = 13)) | Gastrointestinal disorders ≥Grade 3, number of patients (monotherapy 5 mg/m^2 (n = 13)) | Hallucinations ≥Grade 3, number of patients (monotherapy 5 mg/m^2 (n = 13)) | Hypovolemia ≥Grade 3, number of patients (monotherapy 5 mg/m^2 (n = 13)) | Musculoskeletal and connective tissue disorders ≥Grade 3, number of patients (monotherapy 5 mg/m^2 (n = 13)) | Neoplasms benign, malignant, and unspecified (incl. cysts and polyps) ≥Grade 3, number of patients (monotherapy 5 mg/m^2 (n = 13)) | Penile Pain ≥Grade 3, number of patients (monotherapy 5 mg/m^2 (n = 13)) | Pneumonia ≥Grade 3, number of patients (monotherapy 5 mg/m^2 (n = 13)) | Psychiatric disorders ≥Grade 3, number of patients (monotherapy 5 mg/m^2 (n = 13)) | Reproductive system and breast disorders ≥Grade 3, number of patients (monotherapy 5 mg/m^2 (n = 13)) | Abdominal Pain ≥Grade 3, number of patients (monotherapy 10 mg/m^2 (n = 6)) | Acute kidney injury ≥Grade 3, number of patients (monotherapy 10 mg/m^2 (n = 6)) | Asthenia ≥Grade 3, number of patients (monotherapy 10 mg/m^2 (n = 6)) | Back Pain ≥Grade 3, number of patients (monotherapy 10 mg/m^2 (n = 6)) | Cardiac disorders ≥Grade 3, number of patients (monotherapy 10 mg/m^2 (n = 6)) | Cataract ≥Grade 3, number of patients (monotherapy 10 mg/m^2 (n = 6)) | Dyspnea ≥Grade 3, number of patients (monotherapy 10 mg/m^2 (n = 6)) | Extremity Lower Edema ≥Grade 3, number of patients (monotherapy 10 mg/m^2 (n = 6)) | Eye disorders ≥Grade 3, number of patients (monotherapy 10 mg/m^2 (n = 6)) | Gastrointestinal disorders ≥Grade 3, number of patients (monotherapy 10 mg/m^2 (n = 6)) | Hallucinations ≥Grade 3, number of patients (monotherapy 10 mg/m^2 (n = 6)) | Heart failure ≥Grade 3, number of patients (monotherapy 10 mg/m^2 (n = 6)) | Hypocalcemia ≥Grade 3, number of patients (monotherapy 10 mg/m^2 (n = 6)) | Hypoglycemia ≥Grade 3, number of patients (monotherapy 10 mg/m^2 (n = 6)) | Hyponatremia ≥Grade 3, number of patients (monotherapy 10 mg/m^2 (n = 6)) | Hypotension ≥Grade 3, number of patients (monotherapy 10 mg/m^2 (n = 6))
12: Blood and lymphatic system disorders ≥Grade 3, total events (all patients (N = 39)) | Metabolism and nutritional disorders ≥Grade 3, total patients (all patients (N = 39)) | Metabolism and nutritional disorders ≥Grade 3, number of patients (monotherapy 5 mg/m^2 (n = 13))
disorders (2/2): Hepatobiliary disorders ≥Grade 3, total events (all patients (N = 39)) | Hepatobiliary disorders ≥Grade 3, total patients (all patients (N = 39)) | Vascular disorders ≥Grade 3, total events (all patients (N = 39)) | Vascular disorders ≥Grade 3, total patients (all patients (N = 39))
polyps) (2/2): Neoplasms benign, malignant, and unspecified (incl. cysts and polyps) ≥Grade 3, total events (all patients (N = 39)) | Neoplasms benign, malignant, and unspecified (incl. cysts and polyps) ≥Grade 3, total patients (all patients (N = 39))
10: AML progression, number of patients (monotherapy 5 mg/m^2 (n = 13)) | Patients with AEs ≥Grade 3, number of patients (monotherapy 5 mg/m^2 (n = 13))
3: Investigations ≥Grade 3, total events (all patients (N = 39)) | Acute kidney injury ≥Grade 3, number of patients (monotherapy 5 mg/m^2 (n = 13)) | Cardiac disorders ≥Grade 3, number of patients (monotherapy 5 mg/m^2 (n = 13)) | General disorders and administration site conditions ≥Grade 3, number of patients (monotherapy 5 mg/m^2 (n = 13)) | Heart failure ≥Grade 3, number of patients (monotherapy 5 mg/m^2 (n = 13)) | Leukocytosis ≥Grade 3, number of patients (monotherapy 5 mg/m^2 (n = 13)) | Renal and urinary disorders ≥Grade 3, number of patients (monotherapy 5 mg/m^2 (n = 13)) | Tumor lysis syndrome ≥Grade 3, number of patients (monotherapy 5 mg/m^2 (n = 13))
28: Patients with AEs ≥Grade 3, total patients (all patients (N = 39))
